In US20210380606A1, “5-AZAINDAZOLE DERIVATIVES AS ADENOSINE RECEPTOR ANTAGONISTS” (Merck Patent GmbH, priority 2018, published 2021):
Like-named read-outs stand apart in the source and are kept apart here.

Legend:
human A2B receptors = target: T1, human A2B receptors (Homo sapiens, UniProt P29275); test: Functional human A2B receptor activity, recombinant HEK293 cells, cAMP (HTRF); type: cell-based
T1 construct: expressed in transfected cells; host or cells: HEK293
T1 sequence (P29275 1-332): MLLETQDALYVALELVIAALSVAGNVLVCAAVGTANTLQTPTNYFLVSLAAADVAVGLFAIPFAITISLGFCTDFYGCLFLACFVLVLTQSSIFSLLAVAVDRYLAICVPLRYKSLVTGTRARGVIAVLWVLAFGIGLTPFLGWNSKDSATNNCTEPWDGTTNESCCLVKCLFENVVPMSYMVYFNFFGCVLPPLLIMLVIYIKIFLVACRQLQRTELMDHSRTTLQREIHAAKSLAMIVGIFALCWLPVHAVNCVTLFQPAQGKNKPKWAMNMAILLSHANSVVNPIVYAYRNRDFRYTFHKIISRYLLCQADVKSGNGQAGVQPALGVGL
How it was run: (§1)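 Adenosine receptor activity tracked via second-messenger cAMP; incubation 15 min, then HTRF detection of cellular cAMP.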

human A2A receptors = target: T2, human A2A receptors (Homo sapiens, UniProt P29274); test: Functional human A2A receptor activity, recombinant HEK293 cells, cAMP (HTRF); type: cell-based
T2 construct: expressed in transfected cells; host or cells: HEK293
How it was run: as §1

T2 sequence (P29274 whole entry): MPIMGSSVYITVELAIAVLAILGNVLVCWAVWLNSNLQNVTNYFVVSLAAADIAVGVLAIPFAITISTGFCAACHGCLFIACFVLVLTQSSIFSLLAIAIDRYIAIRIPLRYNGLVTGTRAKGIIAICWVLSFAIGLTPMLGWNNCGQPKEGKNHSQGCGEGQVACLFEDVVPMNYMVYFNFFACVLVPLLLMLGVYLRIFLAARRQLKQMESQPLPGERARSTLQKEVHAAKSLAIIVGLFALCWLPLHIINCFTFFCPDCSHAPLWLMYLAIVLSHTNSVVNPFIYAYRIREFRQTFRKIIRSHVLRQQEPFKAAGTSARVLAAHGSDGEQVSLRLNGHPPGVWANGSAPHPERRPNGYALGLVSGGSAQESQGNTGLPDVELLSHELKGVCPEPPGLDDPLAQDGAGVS

Compound | IC50 (human A2B receptors; read-out: A2B (Category)) | IC50 (human A2A receptors; read-out: A2A (Category)) | IC50 (human A2B receptors; read-out: Functional A2B receptor activity HEK293, cAMP IC50) | IC50 (human A2A receptors; read-out: Functional A2A receptor activity, HEK293, cAMP, IC50)
O=C(c1cc2c(cn1)c(-c1cnc3ccc(F)cn13)nn2CC(F)(F)F)N1CC2CCC(C1)O2 [Compound 82, [3-(6-Fluoro-imidazo[1,2-a]pyridin-3-yl)-1-(2,2,2-trifluoro-ethyl)-1H-pyrazolo[4,3-c]pyridin-6-yl]-(8-oxa-3-aza-bicyclo[3.2.1]oct-3-yl)-methanone] | < 1000 nM | < 100 nM | – | –
CC1(O)CCN(C(=O)c2cc3c(cn2)c(-c2cnc4c(F)cc(F)cn24)nn3CC(F)(F)F)CC1 [Compound 133, [3-(6,8-Difluoro-imidazo[1,2-a]pyridin-3-yl)-1-(2,2,2-trifluoro-ethyl)-1H-pyrazolo[4,3-c]pyridin-6-yl]-(4-hydroxy-4-methyl-piperidin-1-yl)-methanone] | < 1000 nM | < 100 nM | – | –
NC(=O)c1ccc2occ(-c3nn(CC(F)(F)F)c4cc(C(=O)N5CCCOCC5)ncc34)c2c1 [Compound 237, 3-[6-(1,4-oxazepane-4-carbonyl)-1-(2,2,2-trifluoroethyl)pyrazolo[4,3-c]pyridin-3-yl]benzofuran-5-carboxamide] | < 1000 nM | < 100 nM | – | –
O=C(c1cc2c(cn1)c(-c1cnc3c(F)cc(F)cn13)nn2CC(F)(F)F)N1CCOCC(O)C1 (stereo not shown) [Compound 193, [3-(6,8-Difluoro-imidazo[1,2-a]pyridin-3-yl)-1-(2,2,2-trifluoro-ethyl)-1H-pyrazolo[4,3-c]pyridin-6-yl]-(6-hydroxy-1,4-oxazepan-4-yl)-methanone] | < 1000 nM | < 100 nM | – | –
O=C(c1cc2c(cn1)c(-c1coc3ccccc13)nn2CC(F)(F)F)N1CC2CCC(C1)O2 [Compound 100, [3-Benzofuran-3-yl-1-(2,2,2-trifluoro-ethyl)-1H-pyrazolo[4,3-c]pyridin-6-yl]-(8-oxa-3-aza-bicyclo[3.2.1]oct-3-yl)-methanone] | < 100 nM | < 100 nM | – | –
O=C(c1cc2c(cn1)c(-c1cnc3ccc(O)cn13)nn2CC(F)(F)F)N1CCCCCC1 [Compound 68, Azepan-1-yl-[3-(6-hydroxy-imidazo[1,2-a]pyridin-3-yl)-1-(2,2,2-trifluoro-ethyl)-1H-pyrazolo[4,3-c]pyridin-6-yl]-methanone] | < 1000 nM | < 100 nM | – | –
O=C(c1cc2c(cn1)c(-n1cnc3ccc(F)cc31)nn2CC(F)(F)F)N1CCCOCC1 [Compound 252, [3-(6-fluorobenzimidazol-1-yl)-1-(2,2,2-trifluoroethyl)pyrazolo[4,3-c]pyridin-6-yl]-(1,4-oxazepan-4-yl)methanone] | < 100 nM | < 100 nM | – | –
O=C(c1cc2c(cn1)c(-c1cnc3c(F)cc(F)cn13)nn2CC(F)(F)F)N1CC2CCC(C2)C1 [Compound 139, (3-Aza-bicyclo[3.2.1]oct-3-yl)-[3-(6,8-difluoro-imidazo[1,2-a]pyridin-3-yl)-1-(2,2,2-trifluoro-ethyl)-1H-pyrazolo[4,3-c]pyridin-6-yl]-methanone] | < 100 nM | < 100 nM | – | –
O=C(c1ccc2c(-c3cnc4ccc(Cl)cn34)nn(CC(F)(F)F)c2c1)N1CCCCCC1 [analogue to No. 48, reference compound] | – | – | > 1000 nM | < 100 nM
O=C(c1cc2c(cn1)c(-c1cnc3c(F)cc(F)cn13)nn2CC(F)(F)F)N1CCOC2(CCC2)C1 [Compound 192, [3-(6,8-Difluoro-imidazo[1,2-a]pyridin-3-yl)-1-(2,2,2-trifluoro-ethyl)-1H-pyrazolo[4,3-c]pyridin-6-yl]-(5-oxa-8-aza-spiro[3.5]non-8-yl)-methanone] | < 1000 nM | < 100 nM | – | –
O=C(c1cc2c(cn1)c(-c1cnn3ccccc13)nn2CC(F)(F)F)N1CCCCCC1 [Compound 89, Azepan-1-yl-[3-pyrazolo[1,5-a]pyridin-3-yl-1-(2,2,2-trifluoro-ethyl)-1H-pyrazolo[4,3-c]pyridin-6-yl]-methanone hydrochoride] | < 100 nM | < 100 nM | – | –
O=C(c1cc2c(cn1)c(-c1coc3ccc(F)cc13)nn2CC(F)(F)F)N1CCC(O)CC1 [Compound 115, [3-(5-fluorobenzofuran-3-yl)-1-(2,2,2-trifluoroethyl)pyrazolo[4,3-c]pyridin-6-yl]-(4-hydroxy-1-piperidyl)methanone] | < 100 nM | < 100 nM | – | –
CS(=O)(=O)Cn1nc(-c2cnc3c(F)cc(F)cn23)c2cnc(C(=O)N3CC4CCC(C4)C3)cc21 [Compound 23, (3-Aza-bicyclo[3.2.1]oct-3-yl)-[3-(6,8-difluoro-imidazo[1,2-a]pyridin-3-yl)-1-methanesulfonylmethyl-1H-pyrazolo[4,3-c]pyridin-6-yl]-methanone] | < 100 nM | < 100 nM | – | –
O=C(c1cc2c(cn1)c(-c1cnc3c(F)cc(F)cn13)nn2CC(F)(F)F)N1[C@@H]2CC[C@H]1C[C@@H](O)C2 [Compound 168, [3-(6,8-Difluoro-imidazo[1,2-a]pyridin-3-yl)-1-(2,2,2-trifluoro-ethyl)-1H-pyrazolo[4,3-c]pyridin-6-yl]-(3-endo-hydroxy-8-aza-bicyclo[3.2.1]oct-8-yl)-methanone] | < 100 nM | < 100 nM | – | –
O=C(c1cc2c(cn1)c(-c1coc3ccccc13)nn2CC(F)(F)F)N1CCC(O)CC1 [Compound 207, [3-Benzofuran-3-yl-1-(2,2,2-trifluoro-ethyl)-1H-pyrazolo[4,3-c]pyridin-6-yl]-(4-hydroxy-piperidin-1-yl)-methanone] | < 100 nM | < 100 nM | – | –
CC1(O)CCN(C(=O)c2cc3c(cn2)c(-c2coc4ccccc24)nn3CC(F)(F)F)CC1 [Compound 208, [3-Benzofuran-3-yl-1-(2,2,2-trifluoro-ethyl)-1H-pyrazolo[4,3-c]pyridin-6-yl]-(4-hydroxy-4-methyl-piperidin-1-yl)-methanone] | < 100 nM | < 100 nM | – | –
O=C(c1cc2c(cn1)c(-c1cnn3ccncc13)nn2CC(F)(F)F)N1CCCCCC1 [Compound 248, Azepan-1-yl-[3-pyrazolo[1,5-a]pyrazin-3-yl-1-(2,2,2-trifluoro-ethyl)-1H-pyrazolo[4,3-c]pyridin-6-yl]-methanone] | < 1000 nM | < 100 nM | – | –
C[C@@H]1COC[C@H](C)N1C(=O)c1cc2c(cn1)c(-c1cnc3c(F)cc(F)cn13)nn2CC(F)(F)F [Compound 183, Cis-[3-(6,8-Difluoro-imidazo[1,2-a]pyridin-3-yl)-1-(2,2,2-trifluoro-ethyl)-1H-pyrazolo[4,3-c]pyridin-6-yl]-(3,5-dimethyl-morpholin-4-yl)-methanone] | < 1000 nM | < 100 nM | – | –
O=C(c1cc2c(cn1)c(-c1cnc3c(F)cc(F)cn13)nn2CC(F)(F)F)N1CC2CCC(C1)C2O (stereo not drawn) [Compound 170, [3-(6,8-Difluoro-imidazo[1,2-a]pyridin-3-yl)-1-(2,2,2-trifluoro-ethyl)-1H-pyrazolo[4,3-c]pyridin-6-yl]-(8-exo-hydroxy-3-aza-bicyclo[3.2.1]oct-3-yl)-methanone] | < 1000 nM | < 100 nM | – | –
CS(=O)(=O)Cn1nc(-c2coc3ccccc23)c2cnc(C(=O)N3CCCC(O)C3)cc21 (stereo not shown) [Compound 38, (3-Benzofuran-3-yl-1-methanesulfonylmethyl-1H-pyrazolo[4,3-c]pyridin-6-yl)-(3-hydroxy-piperidin-1-yl)-methanone] | < 1000 nM | < 100 nM | – | –
O=C(c1cc2c(cn1)c(-c1cnc3cc(Cl)c(F)cn13)nn2CC(F)(F)F)N1CCCCCC1 [Compound 73, Azepan-1-yl-[3-(7-chloro-6-fluoro-imidazo[1,2-a]pyridin-3-yl)-1-(2,2,2-trifluoro-ethyl)-1H-pyrazolo[4,3-c]pyridin-6-yl]-methanone] | < 100 nM | < 100 nM | – | –
O=C(c1cc2c(cn1)c(-c1coc3ccccc13)nn2CCF)N1[C@@H]2CC[C@H]1C[C@@H](O)C2 [Compound 221, [3-Benzofuran-3-yl-1-(2-fluoro-ethyl)-1H-pyrazolo[4,3-c]pyridin-6-yl]-(3-endo-hydroxy-8-aza-bicyclo[3.2.1]oct-8-yl)-methanone] | < 100 nM | < 100 nM | – | –
O=C(c1cc2c(cn1)c(-c1coc3ccc(F)cc13)nn2CC(F)(F)F)N1CCCC(O)CC1 (stereo not shown) [Compound 122, [3-(5-fluorobenzofuran-3-yl)-1-(2,2,2-trifluoroethyl)pyrazolo[4,3-c]pyridin-6-yl]-(4-hydroxyazepan-1-yl)methanone] | < 100 nM | < 100 nM | – | –
CSCn1nc(-c2cnc3c(F)cc(F)cn23)c2cnc(C(=O)N3CC4CCC(C4)C3)cc21 [Compound 14, (3-Aza-bicyclo[3.2.1]oct-3-yl)-[3-(6,8-difluoro-imidazo[1,2-a]pyridin-3-yl)-1-methylsulfanylmethyl-1H-pyrazolo[4,3-c]pyridin-6-yl]-methanone] | < 100 nM | < 100 nM | – | –
CS(=O)(=O)Cn1nc(-c2cnn3ccccc23)c2cnc(C(=O)N3CC4CCC(C4)C3)cc21 [Compound 18, (3-Aza-bicyclo[3.2.1]oct-3-yl)-(1-methanesulfonylmethyl-3-pyrazolo[1,5-a]pyridin-3-yl-1H-pyrazolo[4,3-c]pyridin-6-yl)-methanone] | < 1000 nM | < 100 nM | – | –
O=C(c1cc2c(cn1)c(-c1coc3ccccc13)nn2CC(F)F)N1CCCOCC1 [Compound 103, [3-Benzofuran-3-yl-1-(2,2-difluoro-ethyl)-1H-pyrazolo[4,3-c]pyridin-6-yl]-1,4-oxazepan-4-yl-methanone] | < 1000 nM | < 100 nM | – | –
